According to the NIST ThermoML archive (doi:10.1016/j.jct.2009.11.014):

Details: Liquid; for viscosity: Stony Brook Scientific falling needle HPHTV-100 viscometer; for mass density: vibrating tube

CCn1cc[n+](C)c1.F[B-](F)(F)F [1-ethyl-3-methylimidazolium tetrafluoroborate]
Details	mass density [kg/m3]	viscosity [mPa·s]
282.55 K, 100 kPa	–	67.8
282.55 K, 700 kPa	–	69.1
282.55 K, 1700 kPa	–	70.1
282.55 K, 2700 kPa	–	71.6
282.55 K, 4400 kPa	–	72.9
282.55 K, 6100 kPa	–	74.3
282.55 K, 8200 kPa	–	75.5
282.55 K, 10300 kPa	–	76.1
282.55 K, 12900 kPa	–	77.9
282.55 K, 14100 kPa	–	79.3
283.15 K, 100 kPa	1297.04	–
283.15 K, 2000 kPa	1297.83	–
283.15 K, 4000 kPa	1298.68	–
283.15 K, 6000 kPa	1299.52	–
283.15 K, 8000 kPa	1300.36	–
283.15 K, 10000 kPa	1301.22	–
283.15 K, 12000 kPa	1302.03	–
283.15 K, 14000 kPa	1302.82	–
283.15 K, 20000 kPa	1305.3	–
283.15 K, 30000 kPa	1309.33	–
283.15 K, 40000 kPa	1313.27	–
283.15 K, 50000 kPa	1317.06	–
283.15 K, 60000 kPa	1320.84	–
288.15 K, 100 kPa	1293.21	–
288.15 K, 2000 kPa	1294.02	–
288.15 K, 4000 kPa	1294.88	–
288.15 K, 6000 kPa	1295.72	–
288.15 K, 8000 kPa	1296.59	–
288.15 K, 10000 kPa	1297.45	–
288.15 K, 12000 kPa	1298.29	–
288.15 K, 14000 kPa	1299.08	–
288.15 K, 20000 kPa	1301.58	–
288.15 K, 30000 kPa	1305.62	–
288.15 K, 40000 kPa	1309.54	–
288.15 K, 50000 kPa	1313.39	–
288.15 K, 60000 kPa	1317.17	–
293.15 K, 100 kPa	1289.36	–
293.15 K, 2000 kPa	1290.17	–
293.15 K, 4000 kPa	1291.05	–
293.15 K, 6000 kPa	1291.91	–
293.15 K, 8000 kPa	1292.79	–
293.15 K, 10000 kPa	1293.63	–
293.15 K, 12000 kPa	1294.48	–
293.15 K, 14000 kPa	1295.29	–
293.15 K, 20000 kPa	1297.8	–
293.15 K, 30000 kPa	1301.86	–
293.15 K, 40000 kPa	1305.84	–
293.15 K, 50000 kPa	1309.69	–
293.15 K, 60000 kPa	1313.49	–
293.75 K, 6300 kPa	–	46.1
293.75 K, 8200 kPa	–	47.5
293.75 K, 10100 kPa	–	48.4
293.75 K, 12400 kPa	–	49.3
293.85 K, 100 kPa	–	43.4
293.85 K, 700 kPa	–	43.7
293.85 K, 1700 kPa	–	44.1
293.85 K, 2700 kPa	–	44.4
293.85 K, 4200 kPa	–	44.9
293.85 K, 14500 kPa	–	49.7
298.15 K, 100 kPa	1285.51	–
298.15 K, 2000 kPa	1286.33	–
298.15 K, 4000 kPa	1287.22	–
298.15 K, 6000 kPa	1288.13	–
298.15 K, 8000 kPa	1289.02	–
298.15 K, 10000 kPa	1289.83	–
298.15 K, 12000 kPa	1290.7	–
298.15 K, 14000 kPa	1291.53	–
298.15 K, 20000 kPa	1294.05	–
298.15 K, 30000 kPa	1298.17	–
298.15 K, 40000 kPa	1302.18	–
298.15 K, 50000 kPa	1306.09	–
298.15 K, 60000 kPa	1309.95	–
303.15 K, 100 kPa	1281.74	–
303.15 K, 2000 kPa	1282.57	–
303.15 K, 4000 kPa	1283.44	–
303.15 K, 6000 kPa	1284.35	–
303.15 K, 8000 kPa	1285.26	–
303.15 K, 10000 kPa	1286.08	–
303.15 K, 12000 kPa	1287	–
303.15 K, 14000 kPa	1287.82	–
303.15 K, 20000 kPa	1290.4	–
303.15 K, 30000 kPa	1294.54	–
303.15 K, 40000 kPa	1298.58	–
303.15 K, 50000 kPa	1302.56	–
303.15 K, 60000 kPa	1306.43	–
303.95 K, 10300 kPa	–	34.2
304.05 K, 120 kPa	–	30.9
304.05 K, 680 kPa	–	31.1
304.05 K, 1730 kPa	–	31.2
304.05 K, 2710 kPa	–	31.4
304.05 K, 4300 kPa	–	32.2
304.05 K, 6340 kPa	–	32.6
304.05 K, 8250 kPa	–	33.1
304.05 K, 12210 kPa	–	34.3
304.05 K, 14300 kPa	–	35.2
308.15 K, 100 kPa	1277.93	–
308.15 K, 2000 kPa	1278.81	–
308.15 K, 4000 kPa	1279.69	–
308.15 K, 6000 kPa	1280.58	–
308.15 K, 8000 kPa	1281.46	–
308.15 K, 10000 kPa	1282.35	–
308.15 K, 12000 kPa	1283.22	–
308.15 K, 14000 kPa	1284.11	–
308.15 K, 20000 kPa	1286.68	–
308.15 K, 30000 kPa	1290.85	–
308.15 K, 40000 kPa	1294.96	–
308.15 K, 50000 kPa	1298.92	–
308.15 K, 60000 kPa	1302.82	–
313.15 K, 100 kPa	1274.17	–
313.15 K, 2000 kPa	1275.04	–
313.15 K, 4000 kPa	1275.93	–
313.15 K, 6000 kPa	1276.8	–
313.15 K, 8000 kPa	1277.73	–
313.15 K, 10000 kPa	1278.61	–
313.15 K, 12000 kPa	1279.51	–
313.15 K, 14000 kPa	1280.39	–
313.15 K, 20000 kPa	1283.04	–
313.15 K, 30000 kPa	1287.29	–
313.15 K, 40000 kPa	1291.42	–
313.15 K, 50000 kPa	1295.43	–
313.15 K, 60000 kPa	1299.37	–
313.65 K, 10170 kPa	–	25.7
313.65 K, 12290 kPa	–	26
313.65 K, 14100 kPa	–	26.2
313.75 K, 1760 kPa	–	23.8
313.75 K, 2730 kPa	–	24.1
313.75 K, 4350 kPa	–	24.5
313.75 K, 6270 kPa	–	24.9
313.75 K, 8230 kPa	–	25.1
313.85 K, 100 kPa	–	23.3
313.85 K, 700 kPa	–	23.4
313.85 K, 10300 kPa	–	25.6
318.15 K, 100 kPa	1270.39	–
318.15 K, 2000 kPa	1271.3	–
318.15 K, 4000 kPa	1272.25	–
318.15 K, 6000 kPa	1273.14	–
318.15 K, 8000 kPa	1274.05	–
318.15 K, 10000 kPa	1274.96	–
318.15 K, 12000 kPa	1275.87	–
318.15 K, 14000 kPa	1276.72	–
318.15 K, 20000 kPa	1279.36	–
318.15 K, 30000 kPa	1283.7	–
318.15 K, 40000 kPa	1287.8	–
318.15 K, 50000 kPa	1291.92	–
318.15 K, 60000 kPa	1295.92	–
323.15 K, 100 kPa	1266.69	–
323.15 K, 2000 kPa	1267.58	–
323.15 K, 4000 kPa	1268.52	–
323.15 K, 6000 kPa	1269.45	–
323.15 K, 8000 kPa	1270.37	–
323.15 K, 10000 kPa	1271.28	–
323.15 K, 12000 kPa	1272.19	–
323.15 K, 14000 kPa	1273.08	–
323.15 K, 20000 kPa	1275.76	–
323.15 K, 30000 kPa	1280.1	–
323.15 K, 40000 kPa	1284.32	–
323.15 K, 50000 kPa	1288.41	–
323.15 K, 60000 kPa	1292.42	–
323.65 K, 100 kPa	–	18.4
323.65 K, 700 kPa	–	18.6
323.65 K, 1700 kPa	–	18.7
323.75 K, 1200 kPa	–	18.5
323.75 K, 2300 kPa	–	18.7
323.75 K, 4200 kPa	–	18.9
323.75 K, 4500 kPa	–	18.9
323.75 K, 6100 kPa	–	19
323.75 K, 6600 kPa	–	19.4
323.75 K, 8200 kPa	–	19.3
323.75 K, 10200 kPa	–	19.7
323.75 K, 12400 kPa	–	19.9
323.75 K, 14300 kPa	–	20.1
